Test system: intraperitoneal MDA-MB-435 xenograft tumors
Experiment: Tumor reduction study, peritoneal carcinomatosis
Format: in vivo, SCID-mice
Details: 6×1.85 MBq i.p., days 16-26 after inoculation, groups of 8 mice; p = 0.04
Experimental: To generate intraperitoneal xenograft tumors, 6–8 week old SCID-mice (Charles River, Sulzfeld, Germany) were injected i.p. with 1×10^7 MDA-MB435 tumor cells. Mice were weighed weekly and were sacrificed when the mean normal body weigth decreased <25% or when mice developped tumor side effects like ascites or reduced general condititon. All experiments were performed according to the German law for the protection of animals.
SCID-mice (Charles River, Sulzfeld, Germany) were injected i.p. with 1×10^7 MDA-MB-435 cells expressing firefly luciferase in 100 µl PBS. […] All experiments were performed three times. The animals were controlled daily until they were sacrificed.

O=C([O-])CN(CCN(CC(=O)[O-])CC(=O)[O-])CCN(CC(=O)[O-])CC(=O)[O-].[213Bi+3] [^213Bi-DTPA]
mean survival: 48 days

From publication PMC2682652 (PLoS ONE, 2009)
